Source: patent US20260085053A1, “BENZOFURAN DERIVATIVES AS SIK INHIBITORS AND THE USE THEREOF” (BEONE MEDICINES I GMBH, priority 2023, published 2026)

What was measured:
[1] = target: T1, SIK2 kinase (full length, Thermo Fisher) (Homo sapiens, UniProt Q9H0K1); experiment: Biochemical activities determination for SIK2 protein (TR-FRET); conditions: 80 uM ATP, 0.5 μM substrate
T1 construct: SIK2 kinase (full length, Thermo Fisher); purchased Thermo Fisher
Summary of the method: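 Full-length SIK2 preincubated 60 min with 0–10 μM compound, then reacted 180 min at room temperature with 80 uM ATP and 0.5 μM biotinylated substrate (pH 7.5 Tris/MgCl2 buffer). Phosphorylation detected by TR-FRET (665/620 nm ratio, cryptate antibody/streptavidin-XL665) after overnight incubation; IC50 from four-parameter logistic fit.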

[2] = target: T2, SIK3 kinase (aa59-365, Thermo Fisher) (Homo sapiens, UniProt Q9Y2K2); experiment: Biochemical activities determination for SIK3 protein (TR-FRET); conditions: 125 uM ATP, 0.5 μM STK1 substrate
T2 construct: SIK3 kinase (aa59-365, Thermo Fisher); purchased Thermo Fisher
Summary of the method: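 SIK3 (aa59-365) was preincubated with compound (0-10 μM) for 60 min at room temperature in Tris buffer pH 7.5. The reaction was then started with 125 uM ATP and 0.5 μM STK1 substrate and run 180 min at room temperature. Phospho-substrate was detected by HTRF (665/620 nm ratio), and IC50 came from a four-parameter logistic fit.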

[3] = target: T3, SIK1 kinase (aa1-303, Thermo Fisher) (Homo sapiens, UniProt P57059); experiment: Biochemical activities determination for SIK1 protein (TR-FRET); conditions: 110 uM ATP, 0.5 μM STK1 substrate
T3 construct: SIK1 kinase (aa1-303, Thermo Fisher); purchased Thermo Fisher
Summary of the method: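 TR-FRET kinase assay with SIK1 (aa1-303), 110 uM ATP, 0.5 μM STK1 substrate and 0-10 μM compound in Tris pH 7.5 with MgCl2, EGTA, DTT, Triton X-100. Enzyme preincubated with compound 60 min, reaction 180 min at room temperature; 665/620 nm ratio after overnight detection; IC50 from four-parameter logistic fit.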

T1 sequence (Q9H0K1 whole entry): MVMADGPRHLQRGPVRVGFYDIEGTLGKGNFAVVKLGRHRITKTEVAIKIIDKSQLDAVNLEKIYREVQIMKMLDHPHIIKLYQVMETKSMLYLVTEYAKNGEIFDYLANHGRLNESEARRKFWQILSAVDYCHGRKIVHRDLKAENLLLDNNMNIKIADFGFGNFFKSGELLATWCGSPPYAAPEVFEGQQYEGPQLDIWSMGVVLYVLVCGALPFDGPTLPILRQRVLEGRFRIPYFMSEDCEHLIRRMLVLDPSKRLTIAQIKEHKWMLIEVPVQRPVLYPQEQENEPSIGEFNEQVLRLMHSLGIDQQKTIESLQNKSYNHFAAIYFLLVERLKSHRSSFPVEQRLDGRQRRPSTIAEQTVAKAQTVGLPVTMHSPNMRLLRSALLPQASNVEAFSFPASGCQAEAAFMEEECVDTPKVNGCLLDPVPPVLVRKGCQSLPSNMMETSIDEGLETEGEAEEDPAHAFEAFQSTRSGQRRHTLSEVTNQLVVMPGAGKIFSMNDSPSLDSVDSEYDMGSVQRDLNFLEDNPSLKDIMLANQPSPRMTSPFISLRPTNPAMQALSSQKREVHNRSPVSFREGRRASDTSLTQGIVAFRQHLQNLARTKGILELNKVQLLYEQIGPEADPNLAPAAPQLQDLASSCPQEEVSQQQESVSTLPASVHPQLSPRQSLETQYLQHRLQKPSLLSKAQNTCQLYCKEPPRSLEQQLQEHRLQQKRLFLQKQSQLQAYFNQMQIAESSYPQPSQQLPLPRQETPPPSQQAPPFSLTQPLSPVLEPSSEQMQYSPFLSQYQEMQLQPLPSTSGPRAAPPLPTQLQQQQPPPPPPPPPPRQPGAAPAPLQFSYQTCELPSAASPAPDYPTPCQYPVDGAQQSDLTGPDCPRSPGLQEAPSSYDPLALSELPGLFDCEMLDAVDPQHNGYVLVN
T2 sequence (Q9Y2K2 59-365): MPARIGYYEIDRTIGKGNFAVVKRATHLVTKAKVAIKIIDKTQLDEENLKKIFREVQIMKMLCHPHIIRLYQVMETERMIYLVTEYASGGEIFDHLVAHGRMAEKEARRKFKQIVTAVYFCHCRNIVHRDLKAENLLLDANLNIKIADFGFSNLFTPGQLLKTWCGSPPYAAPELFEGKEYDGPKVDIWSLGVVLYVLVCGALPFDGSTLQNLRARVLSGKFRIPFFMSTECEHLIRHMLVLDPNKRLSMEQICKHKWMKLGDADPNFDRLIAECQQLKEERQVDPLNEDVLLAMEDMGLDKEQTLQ
T3 sequence (P57059 1-303): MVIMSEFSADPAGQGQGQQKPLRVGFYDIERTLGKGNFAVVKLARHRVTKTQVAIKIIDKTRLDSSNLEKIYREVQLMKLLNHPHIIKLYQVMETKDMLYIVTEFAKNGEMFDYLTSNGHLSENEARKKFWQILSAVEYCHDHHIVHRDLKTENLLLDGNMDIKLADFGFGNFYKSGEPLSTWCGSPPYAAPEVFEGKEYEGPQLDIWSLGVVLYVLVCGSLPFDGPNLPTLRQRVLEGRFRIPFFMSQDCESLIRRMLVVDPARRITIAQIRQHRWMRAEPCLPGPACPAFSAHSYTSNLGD

Row | SMILES | IC50 [1] [nM] | IC50 [2] [nM] | IC50 [3] [nM]
1 | CN1CCC(n2cc(-c3ccc4c(-c5cc6c(c(OC(F)F)c5)C(=O)N(CC(F)(F)F)CC6)coc4c3)cn2)C1 (stereo not drawn) [Compound 47, 8-(difluoromethoxy)-6-(6-(1-(1-methylpyrrolidin-3-yl)-1H-pyrazol-4-yl)benzofuran-3-yl)-2-(2,2,2-trifluoroethyl)-3,4-dihydroisoquinolin-1 (2H)-one] | 3 | 33 | 335
2 | O=C1c2c(cc(-c3coc4cc(-c5cnn(C6CNC6)c5)ccc34)cc2OC(F)F)CCN1CC(F)(F)F [Compound 42, 6-(6-(1-(azetidin-3-yl)-1H-pyrazol-4-yl)benzofuran-3-yl)-8-(difluoromethoxy)-2-(2,2,2-trifluoroethyl)-3,4-dihydroisoquinolin-1 (2H)-one] | 25 | 115 | 1590
3 | COc1cc(-c2coc3cc(-c4cn(C)nn4)ccc23)cc2c1C(=O)N(CC(F)(F)F)CC2 [Compound 17, 8-methoxy-6-(6-(1-methyl-1H-1,2,3-triazol-4-yl)benzofuran-3-yl)-2-(2,2,2-trifluoroethyl)-3,4-dihydroisoquinolin-1 (2H)-one] | 28 | 79 | 2310
4 | COc1cc(-c2coc3cc(OCCN4CCCC4)ccc23)cc2c1C(=O)N(CC#N)CC2 [Compound 65, 2-(8-methoxy-1-oxo-6-(6-(2-(pyrrolidin-1-yl)ethoxy)benzofuran-3-yl)-3,4-dihydroisoquinolin-2 (1H)-yl) acetonitrile] | 103 | 313 | > 10000
5 | COc1cc(-c2coc3cc(-c4cnn(C5CCN(C)CC5)c4)ccc23)cc(OC(F)F)c1C(=O)N[C@@H]1C[C@@H]1F [Compound 39, 2-(difluoromethoxy)-N-((1R,2S)-2-fluorocyclopropyl)-6-methoxy-4-(6-(1-(1-methylpiperidin-4-yl)-1H-pyrazol-4-yl)benzofuran-3-yl)benzamide] | 1.7 | 4.1 | 25
6 | N#CCCN1CC(n2cc(-c3ccc4c(-c5cc6c(c(OC(F)F)c5)C(=O)N(CC(F)(F)F)CC6)coc4c3)cn2)C1 [Compound 45, 3-(3-(4-(3-(8-(difluoromethoxy)-1-oxo-2-(2,2,2-trifluoroethyl)-1,2,3,4-tetrahydroisoquinolin-6-yl)benzofuran-6-yl)-1H-pyrazol-1-yl)azetidin-1-yl) propanenitrile] | 9.8 | 28 | 560
7 | COc1cc(-c2coc3cc(-c4cnn(C)c4)ccc23)cc(OC)c1-c1nnc(C)o1 [Compound 34, 2-(2,6-dimethoxy-4-(6-(1-methyl-1H-pyrazol-4-yl)benzofuran-3-yl)phenyl)-5-methyl-1,3,4-oxadiazole] | 239 | 420 | 2680
8 | COc1cc(-c2coc3cc(-c4cnn(C)c4)ccc23)cc2c1C(=O)N(C1CC1)CC2 [Compound 27, 2-cyclopropyl-8-methoxy-6-(6-(1-methyl-1H-pyrazol-4-yl)benzofuran-3-yl)-3,4-dihydroisoquinolin-1 (2H)-one] | 34 | 72 | 1130
9 | Cn1cc(-c2ccc3c(-c4cc5c(c(OC(F)F)c4)C(=O)N(CC(N)=O)CC5)coc3c2)cn1 [Compound 24, 2-(8-(difluoromethoxy)-6-(6-(1-methyl-1H-pyrazol-4-yl)benzofuran-3-yl)-1-oxo-3,4-dihydroisoquinolin-2 (1H)-yl) acetamide] | 281 | 320 | 3340
10 | COc1cc(-c2coc3cc(-c4cn(C)nc4C#N)ccc23)cc2c1C(=O)N(CC(F)(F)F)CC2 [Compound 18, 4-(3-(8-methoxy-1-oxo-2-(2,2,2-trifluoroethyl)-1,2,3,4-tetrahydroisoquinolin-6-yl)benzofuran-6-yl)-1-methyl-1H-pyrazole-3-carbonitrile] | 214 | 237 | > 10000

Results, then the compound that gave them:

Row | IC50 [1] [nM] | IC50 [2] [nM] | IC50 [3] [nM] | SMILES
11 | 385 | 2490 | > 10000 | COc1cc(-c2coc3cc(OCCN4CCCC4)ccc23)cc(OC(F)F)c1C(=O)N[C@H]1CCCC[C@H]1O [Compound 125, 2-(difluoromethoxy)-N-((1S,2R)-2-hydroxycyclohexyl)-6-methoxy-4-(6-(2-(pyrrolidin-1-yl)ethoxy)benzofuran-3-yl)benzamide]
12 | 24 | 74 | 4210 | COc1cc(-c2coc3cc(OCCN4CCC[C@@H](C)C4)ccc23)cc(OC(F)F)c1C(=O)N[C@@H]1C[C@@H]1F [Compound 89, 2-(difluoromethoxy)-N-((1R,2S)-2-fluorocyclopropyl)-6-methoxy-4-(6-(2-((R)-3-methylpiperidin-1-yl)ethoxy)benzofuran-3-yl)benzamide]
13 | 9 | 44 | 559 | COc1cc(-c2coc3cc(OCCCN4CCCCC4)ccc23)cc(OC(F)F)c1C(=O)N[C@@H]1C[C@@H]1F [Compound 84, 2-(difluoromethoxy)-N-((1R,2S)-2-fluorocyclopropyl)-6-methoxy-4-(6-(3-(piperidin-1-yl)propoxy)benzofuran-3-yl)benzamide]
14 | 45 | 158 | 3960 | CNc1cc(-c2coc3cc(OCCN4CCCC4)ccc23)cc(OC(F)F)c1C(=O)NC1CC1 [Compound 122, N-cyclopropyl-2-(difluoromethoxy)-6-(methylamino)-4-(6-(2-(pyrrolidin-1-yl)ethoxy)benzofuran-3-yl)benzamide]
15 | 418 | 187 | > 10000 | COc1cc(-c2coc3cc(-c4cnnc(C)c4)ccc23)cc2c1C(=O)N(CC(F)(F)F)CC2 [Example 10, 8-methoxy-6-(6-(6-methylpyridazin-4-yl)benzofuran-3-yl)-2-(2,2,2-trifluoroethyl)-3,4-dihydroisoquinolin-1 (2H)-one]
16 | 78 | 22 | 1090 | COc1cc(-c2coc3cc(OCCN4CCC(F)(F)C4)ccc23)cc(OC(F)F)c1C(=O)N[C@@H]1C[C@@H]1F [Compound 87, 2-(difluoromethoxy)-4-(6-(2-(3,3-difluoropyrrolidin-1-yl)ethoxy)benzofuran-3-yl)-N-((1R,2S)-2-fluorocyclopropyl)-6-methoxybenzamide]
17 | 58 | 132 | 6690 | COc1cc(-c2coc3cc(OCCN4CCCC4)ccc23)cc(OC(F)F)c1C(=O)NCC#N [Compound 66, N-(cyanomethyl)-2-(difluoromethoxy)-6-methoxy-4-(6-(2-(pyrrolidin-1-yl)ethoxy)benzofuran-3-yl)benzamide]
18 | 30 | 60 | 2530 | COc1cc(-c2coc3cc(OCCN4CCC(C)(C)C4)ccc23)cc(OC(F)F)c1C(=O)N[C@@H]1C[C@@H]1F [Compound 93, 2-(difluoromethoxy)-4-(6-(2-(3,3-dimethylpyrrolidin-1-yl)ethoxy)benzofuran-3-yl)-N-((1R,2S)-2-fluorocyclopropyl)-6-methoxybenzamide]
19 | 2780 | > 10000 | > 10000 | CC(C)(O)COc1cc(-c2coc3cc(OCCN4CCCC4)ccc23)cc(OC(F)F)c1C(=O)NC1CC1 [Compound 108, N-cyclopropyl-2-(difluoromethoxy)-6-(2-hydroxy-2-methylpropoxy)-4-(6-(2-(pyrrolidin-1-yl)ethoxy)benzofuran-3-yl)benzamide]
20 | 19 | 57 | 2190 | COc1cc(-c2coc3cc(OCCN4CC[C@@H](OC)C4)ccc23)cc(OC(F)F)c1C(=O)N[C@@H]1C[C@@H]1F [Compound 79, 2-(difluoromethoxy)-N-((1R,2S)-2-fluorocyclopropyl)-6-methoxy-4-(6-(2-((R)-3-methoxypyrrolidin-1-yl)ethoxy)benzofuran-3-yl)benzamide]
21 | 1300 | 7620 | > 10000 | CN1CC[C@@H](COc2cc(-c3coc4cc(OCCN5CCCC5)ccc34)cc(OC(F)F)c2C(=O)NC2CC2)C1 [Compound 112, (R)—N-cyclopropyl-2-(difluoromethoxy)-6-((1-methylpyrrolidin-3-yl)methoxy)-4-(6-(2-(pyrrolidin-1-yl)ethoxy)benzofuran-3-yl)benzamide]
22 | 16 | 93 | 1740 | COc1cc(-c2coc3cc(OCCN4CCC4)ccc23)cc(OC(F)F)c1C(=O)N[C@@H]1C[C@@H]1F [Compound 75, 4-(6-(2-(azetidin-1-yl)ethoxy)benzofuran-3-yl)-2-(difluoromethoxy)-N-((1R,2S)-2-fluorocyclopropyl)-6-methoxybenzamide]
23 | 17 | 68 | 4540 | COc1cc(-c2coc3cc(OCCN4CCC[C@H](C)C4)ccc23)cc(OC(F)F)c1C(=O)N[C@@H]1C[C@@H]1F [Compound 88, 2-(difluoromethoxy)-N-((1R,2S)-2-fluorocyclopropyl)-6-methoxy-4-(6-(2-((S)-3-methylpiperidin-1-yl)ethoxy)benzofuran-3-yl)benzamide]
